Twelve compounds from PubChem BioAssay (NCI) can be followed below.

Each structure is given as a SMILES string.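 Step 1: Grow cells in 96-well plates. Step 2: Expose to compound for 48 hours at 5 concentrations. Step 3: Interpolate endpoints linearly; if unreached, use highest concentration. GI50 is the concentration that inhibits growth by half. At the TGI there is no net growth.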

What all share (assay): NCI-60 cell line screen, 48 h
Assay [1] has as its system OVCAR-4 ovarian.
Assay [2] deals with MALME-3M melanoma.
Assay [3] relates to RXF 393 renal.
For assay [4], the system named is UACC-257 melanoma.
The test system of assay [5] is SW-620 colon.
The test system of assay [6] is M14 melanoma.
Assay [7] deals with NCI-H522 lung.
In assay [8] the test system is NCI-H226 lung.
Assay [9] concerns CCRF-CEM leukemia.
Assay [10] deals with NCI-H23 lung.

In the case of `CC(=O)c1cc(-c2ccccc2N)n(-c2ccc3c(c2)OCO3)c1C`, the GI50 is 0.924 µM in assay [1]; 2.88 µM in [2]; 0.208 µM in assay [3]; 27.3 µM in assay [4]; 0.184 µM in [5]; 0.279 µM in assay [6]. Besides, the GI50 was 0.139 µM in assay [7], 0.239 µM in assay [8], 0.336 µM in assay [9] and 0.218 µM in [10]. The TGI was > 100 µM in [1]; > 83.3 µM in [2]; 0.681 µM in [3]; > 100 µM in assay [4]; > 100 µM in assay [5]; 75 µM in [6]. Besides, the TGI was 5.49 µM in assay [7], 6.86 µM in [8], > 100 µM in assay [9] and 97.6 µM in [10].

`Cc1cccc(N=C2NC(=O)C(CC(=O)Nc3ccc(C)cc3C)S2)c1` (centres undefined): the TGI in [1], in assay [2], in assay [3], in assay [4], in assay [5] and in [6] was > 100 µM in each case. The TGI in assay [7], in assay [8], in [9] and in [10] was > 100 µM throughout.

Take `CCCCNC(=O)Oc1ccc(/C(=C(/CC)Cc2ccccc2)c2ccc(OCCN3CCCCCC3)cc2)cc1`: the GI50 in [1] was 19.2 µM; in assay [2], 18.2 µM; in assay [3] it was 17.3 µM; in [4], 19.8 µM; in assay [5] it was 20.5 µM; in assay [6], 17.7 µM. For the same compound, the GI50 in assay [7] is 20 µM; in assay [8] it was > 100 µM; in assay [9] it was 31.9 µM; in [10], 59.1 µM. In addition, the TGI in assay [1] is 51.3 µM; in assay [2], 35.3 µM; in assay [3], 32.1 µM; in assay [4] it was 40.2 µM; in [5] it was 42.5 µM; in assay [6], 33.9 µM. For the same compound, the TGI in assay [7] was 43.8 µM; in assay [8] it was > 100 µM; in assay [9] it was 93.5 µM; in assay [10], > 100 µM.

`CCCCN(CCCC)CCc1c(C)cc(C)c(CCN(CCCC)CCCC)c1O`: the GI50 in [1] was 3.13 µM; in [2], 2.94 µM; in [3], 2.4 µM; in assay [4], 2.37 µM; in assay [5] it was 2.88 µM; in [6], 3.15 µM. For the same compound, the GI50 was 2.59 µM in assay [7], 3.16 µM in [8], 3.12 µM in [9] and 2.76 µM in assay [10]. The TGI in assay [1] was > 100 µM; in assay [2] it was 11.3 µM; in assay [3], 7.23 µM; in assay [4] it was 7.44 µM; in [5] it was > 100 µM; in [6], 20.8 µM. In addition, the TGI in assay [7] is 7.54 µM; in [8] it was 37.8 µM; in assay [9], > 100 µM; in assay [10], 23.7 µM.

In the case of `O=C(Nc1ccc(Br)cc1)Nc1nn(C(=O)Nc2ccc(Br)cc2)c2ccccc12`, the GI50 was 22.6 µM in [1]; > 44.3 µM in [2]; > 77.6 µM in assay [4]; > 38.6 µM in assay [5]; > 70.8 µM in [6]; 31 µM in [7]. Also, the GI50 in [8] was 27.7 µM; in [9] it was 7.08 µM; in [10] it was 29.1 µM. The TGI in assay [1] was > 66.8 µM; in [2], > 85.3 µM; in assay [3], > 45.9 µM; in assay [4], > 100 µM; in assay [5] it was > 100 µM; in [6], > 100 µM. The TGI in [7] was > 100 µM; in assay [8], > 100 µM; in [9] it was > 22.8 µM; in assay [10], > 100 µM.

Take `CNCCNc1nc2ccccc2c2c(=O)c3cc(OC)ccc3sc12`: the GI50 was 1.68 µM in assay [1]; 1.82 µM in assay [2]; 1.39 µM in [3]; 1.89 µM in [4]; 1.41 µM in [5]; 1.73 µM in assay [6]. Moreover, the GI50 is 1.73 µM in assay [7], 1.75 µM in [8], 1.76 µM in assay [9] and 1.62 µM in assay [10]. Also, the TGI in assay [1] came to 3.22 µM; in assay [2], 3.31 µM; in assay [3], 2.7 µM; in [4], 3.75 µM; in assay [5] it was 2.91 µM; in [6], 3.23 µM. Further, the TGI in assay [7] came to 3.56 µM; in assay [8], 3.61 µM; in assay [9], 3.46 µM; in assay [10], 3.05 µM.

Consider `CC12CC=CCC1CCC1C2CCC2(C)C(c3ccc(=O)oc3)CCC12O` (centres undefined), for which the GI50 was 0.197 µM in [1]; 0.104 µM in assay [2]; 0.0174 µM in [3]; 0.246 µM in assay [4]; 0.0539 µM in assay [5]; 0.113 µM in [6]. For the same compound, the GI50 was 0.0383 µM in [7], 0.219 µM in assay [8], 0.037 µM in assay [9] and 0.0548 µM in assay [10]. For the same compound, the TGI in assay [1] was 0.641 µM; in assay [2], 0.364 µM; in assay [3], 0.0501 µM; in assay [4] it was 0.769 µM; in assay [5], 0.366 µM; in [6], 0.404 µM. Further, the TGI turned out to be 0.273 µM in assay [7], 0.595 µM in assay [8], 0.303 µM in assay [9] and 0.33 µM in [10].

For the compound `COc1ccc(NC(=O)n2nc(/C=C\c3ccc(O)c(OC)c3)cc2/C=C\c2ccc(O)c(OC)c2)cc1`, the GI50 in [1] was 5.72 µM; in [2], 3.66 µM; in assay [3], 3.02 µM; in [4], 16.7 µM; in assay [5], 5.51 µM; in [6], 3.15 µM. The GI50 in assay [7] is 1.76 µM; in [8] it was 10.7 µM; in [9], 2.34 µM; in assay [10], 3.81 µM. The TGI in assay [1] turned out to be 90.7 µM; in assay [2] it was 38.6 µM; in [3] it was 8.87 µM; in [4], 64.8 µM; in assay [5] it was 61.6 µM; in assay [6] it was 41.5 µM. For the same compound, the TGI in assay [7] is 12.7 µM; in assay [8], 78.6 µM; in assay [9], 32.7 µM; in assay [10], 63.8 µM.

As for `Cc1nn(CNc2ccccc2C(F)(F)F)c(=S)n1/N=C/c1ccc(F)cc1`, the GI50 is 23.3 µM in assay [1]; > 100 µM in assay [2]; > 100 µM in assay [3]; 59.2 µM in assay [4]; > 100 µM in assay [5]; 87.9 µM in [6]. In addition, the GI50 in assay [7] is > 100 µM; in assay [8] it was 43.7 µM; in assay [9], 14.2 µM; in assay [10] it was > 100 µM. For the same compound, the TGI was 70.6 µM in [1]; > 100 µM in assay [2]; > 100 µM in assay [3]; > 100 µM in assay [4]; > 100 µM in assay [5]; > 100 µM in assay [6]. Further, the TGI in assay [7], in [8], in assay [9] and in [10] was > 100 µM in each case.

Regarding `[N-]=[N+]=CC(=O)COC(=O)c1ccccc1`, the TGI in assay [1], in assay [2], in assay [3], in assay [4], in [5] and in [6] was > 100 µM in each case. Besides, the TGI in assay [7], in assay [8], in assay [9] and in [10] was > 100 µM in each case.

For `Nc1nc(N)nc(CC(=O)O)n1`, the TGI in assay [1], in assay [2], in [3], in [4], in assay [5] and in assay [6] was > 100 µM throughout. Also, the TGI in [7], in [8], in assay [9] and in assay [10] was > 100 µM each time.

Turning to `C/C(=C(/c1ccc(O)cc1)c1ccc(Cl)cc1)c1ccccc1`, the GI50 was 0.66 µM in [1]; 0.459 µM in [2]; 0.469 µM in [3]; 0.822 µM in assay [4]; 0.8 µM in assay [5]; 0.654 µM in assay [6]. Moreover, the GI50 in [7] is 0.739 µM; in [8] it was 2.75 µM; in assay [9], 0.764 µM; in [10], 0.625 µM. Moreover, the TGI is 2.61 µM in assay [1]; 1 µM in assay [2]; 1.17 µM in [3]; 2.77 µM in assay [4]; 2.78 µM in assay [5]; 1.93 µM in assay [6]. In addition, the TGI in [7] was 2.8 µM; in assay [8], 7.9 µM; in [9], 2.87 µM; in [10], 1.84 µM.
